Data from ChEMBL document CHEMBL3885861, “Open TG-GATES”.

Species on record: Rattus norvegicus
Test: Open TG-GATES - Regimen: Single
Type: toxicity, organism-based, Sprague-Dawley
Design: regimen Single, gender Male, age 6 weeks
Conditions: in vivo, po, 24 h, route gavage; for Bas / Eos / Hb / Ht / Lym / MCH / MCHC / MCV / Mono / Neu / Plat / RBC / Ret / WBC: tissue Blood; for KIDNEY_L / KIDNEY_R / KIDNEY_TOTAL: tissue Kidney; for LIVER: tissue Liver; for A/G / ALP / ALT / AST / BUN / CRE / Ca / Cl / DBIL / GLC / IP / K / LDH / Na / PL / RALB / TBIL / TC / TG / TP / gamma-GTP: tissue Plasma

O=[N+]([O-])c1ccc2c(c1)Cc1ccccc1-2 [2-NITROFLUORENE]
TERMINAL_BW (0 mg/kg, dose level Control): 226.9 g | Bas (0 mg/kg, dose level Control): 0% | Eos (0 mg/kg, dose level Control): 0.8% | Hb (0 mg/kg, dose level Control): 12.7 g/dL | Ht (0 mg/kg, dose level Control): 38.9% | Lym (0 mg/kg, dose level Control): 78.4% | MCH (0 mg/kg, dose level Control): 20.5 pg | MCHC (0 mg/kg, dose level Control): 32.5% | MCV (0 mg/kg, dose level Control): 63.1 fL | Mono (0 mg/kg, dose level Control): 3.2% | Neu (0 mg/kg, dose level Control): 16.8% | Plat (0 mg/kg, dose level Control): 121 x10_4/uL | RBC (0 mg/kg, dose level Control): 618 x10_4/ul | Ret (0 mg/kg, dose level Control): 8.6% | WBC (0 mg/kg, dose level Control): 96.1 x10_2/uL | KIDNEY_L (0 mg/kg, dose level Control): 0.9 g | KIDNEY_R (0 mg/kg, dose level Control): 0.9 g | KIDNEY_TOTAL (0 mg/kg, dose level Control): 1.9 g | LIVER (0 mg/kg, dose level Control): 10.2 g | A/G (0 mg/kg, dose level Control): 1.1 | ALP (0 mg/kg, dose level Control): 1444.8 IU/L | ALT (0 mg/kg, dose level Control): 41.6 IU/L | AST (0 mg/kg, dose level Control): 69.6 IU/L | BUN (0 mg/kg, dose level Control): 16.6 mg/dL | CRE (0 mg/kg, dose level Control): 0.2 mg/dL | Ca (0 mg/kg, dose level Control): 10.7 mg/dL | Cl (0 mg/kg, dose level Control): 104.2 meq/L | DBIL (0 mg/kg, dose level Control): 0.006 mg/dL | GLC (0 mg/kg, dose level Control): 193.2 mg/dL | IP (0 mg/kg, dose level Control): 6.8 mg/dL | K (0 mg/kg, dose level Control): 4.1 meq/L | LDH (0 mg/kg, dose level Control): 153.2 IU/L | Na (0 mg/kg, dose level Control): 141.1 meq/L | PL (0 mg/kg, dose level Control): 149 mg/dL | RALB (0 mg/kg, dose level Control): 2.8 g/dL | TBIL (0 mg/kg, dose level Control): 0 mg/dL | TC (0 mg/kg, dose level Control): 79.8 mg/dL | TG (0 mg/kg, dose level Control): 105.8 mg/dL | TP (0 mg/kg, dose level Control): 5.4 g/dL | gamma-GTP (0 mg/kg, dose level Control): 0.7 IU/L | TERMINAL_BW (100 mg/kg, dose level Low): 220.2 g | Bas (100 mg/kg, dose level Low): 0% | Eos (100 mg/kg, dose level Low): 0.2% | Hb (100 mg/kg, dose level Low): 12.8 g/dL | Ht (100 mg/kg, dose level Low): 39.6% | Lym (100 mg/kg, dose level Low): 79.6% | MCH (100 mg/kg, dose level Low): 20.4 pg | MCHC (100 mg/kg, dose level Low): 32.5% | MCV (100 mg/kg, dose level Low): 62.8 fL | Mono (100 mg/kg, dose level Low): 3.6% | Neu (100 mg/kg, dose level Low): 15.4% | Plat (100 mg/kg, dose level Low): 123.5 x10_4/uL | RBC (100 mg/kg, dose level Low): 631.6 x10_4/ul | Ret (100 mg/kg, dose level Low): 8.1% | WBC (100 mg/kg, dose level Low): 113.4 x10_2/uL | KIDNEY_L (100 mg/kg, dose level Low): 0.9 g | KIDNEY_R (100 mg/kg, dose level Low): 1 g | KIDNEY_TOTAL (100 mg/kg, dose level Low): 1.9 g | LIVER (100 mg/kg, dose level Low): 10.1 g | A/G (100 mg/kg, dose level Low): 1.2 | ALP (100 mg/kg, dose level Low): 1937 IU/L | ALT (100 mg/kg, dose level Low): 39.8 IU/L | AST (100 mg/kg, dose level Low): 82.2 IU/L | BUN (100 mg/kg, dose level Low): 15.6 mg/dL | CRE (100 mg/kg, dose level Low): 0.2 mg/dL | Ca (100 mg/kg, dose level Low): 10.5 mg/dL | Cl (100 mg/kg, dose level Low): 105.3 meq/L | DBIL (100 mg/kg, dose level Low): 0.02 mg/dL | GLC (100 mg/kg, dose level Low): 174.6 mg/dL | IP (100 mg/kg, dose level Low): 6.7 mg/dL | K (100 mg/kg, dose level Low): 4.3 meq/L | LDH (100 mg/kg, dose level Low): 259.2 IU/L | Na (100 mg/kg, dose level Low): 139.7 meq/L | PL (100 mg/kg, dose level Low): 124.6 mg/dL | RALB (100 mg/kg, dose level Low): 2.8 g/dL | TBIL (100 mg/kg, dose level Low): 0.012 mg/dL | TC (100 mg/kg, dose level Low): 64.2 mg/dL | TG (100 mg/kg, dose level Low): 64.7 mg/dL | TP (100 mg/kg, dose level Low): 5.2 g/dL | gamma-GTP (100 mg/kg, dose level Low): 0.7 IU/L | TERMINAL_BW (300 mg/kg, dose level Middle): 216.7 g | Bas (300 mg/kg, dose level Middle): 0% | Eos (300 mg/kg, dose level Middle): 0.4% | Hb (300 mg/kg, dose level Middle): 13.1 g/dL | Ht (300 mg/kg, dose level Middle): 40.4% | Lym (300 mg/kg, dose level Middle): 73.4% | MCH (300 mg/kg, dose level Middle): 20.4 pg | MCHC (300 mg/kg, dose level Middle): 32.6% | MCV (300 mg/kg, dose level Middle): 62.6 fL | Mono (300 mg/kg, dose level Middle): 6% | Neu (300 mg/kg, dose level Middle): 18.2% | Plat (300 mg/kg, dose level Middle): 124.8 x10_4/uL | RBC (300 mg/kg, dose level Middle): 645 x10_4/ul | Ret (300 mg/kg, dose level Middle): 8.6% | WBC (300 mg/kg, dose level Middle): 91 x10_2/uL | KIDNEY_L (300 mg/kg, dose level Middle): 1 g | KIDNEY_R (300 mg/kg, dose level Middle): 1 g | KIDNEY_TOTAL (300 mg/kg, dose level Middle): 1.9 g | LIVER (300 mg/kg, dose level Middle): 9.6 g | A/G (300 mg/kg, dose level Middle): 1.2 | ALP (300 mg/kg, dose level Middle): 1406.4 IU/L | ALT (300 mg/kg, dose level Middle): 35 IU/L | AST (300 mg/kg, dose level Middle): 83.2 IU/L | BUN (300 mg/kg, dose level Middle): 16.3 mg/dL | CRE (300 mg/kg, dose level Middle): 0.2 mg/dL | Ca (300 mg/kg, dose level Middle): 10.2 mg/dL | Cl (300 mg/kg, dose level Middle): 104.9 meq/L | DBIL (300 mg/kg, dose level Middle): 0.02 mg/dL | GLC (300 mg/kg, dose level Middle): 165.6 mg/dL | IP (300 mg/kg, dose level Middle): 7.7 mg/dL | K (300 mg/kg, dose level Middle): 4.5 meq/L | LDH (300 mg/kg, dose level Middle): 203 IU/L | Na (300 mg/kg, dose level Middle): 139.3 meq/L | PL (300 mg/kg, dose level Middle): 115.2 mg/dL | RALB (300 mg/kg, dose level Middle): 2.8 g/dL | TBIL (300 mg/kg, dose level Middle): 0.022 mg/dL | TC (300 mg/kg, dose level Middle): 61.2 mg/dL | TG (300 mg/kg, dose level Middle): 47.3 mg/dL | TP (300 mg/kg, dose level Middle): 5.2 g/dL | gamma-GTP (300 mg/kg, dose level Middle): 0.7 IU/L | TERMINAL_BW (1000 mg/kg, dose level High): 211.8 g | Bas (1000 mg/kg, dose level High): 0% | Eos (1000 mg/kg, dose level High): 0.4% | Hb (1000 mg/kg, dose level High): 13.6 g/dL | Ht (1000 mg/kg, dose level High): 41.6% | Lym (1000 mg/kg, dose level High): 79.4% | MCH (1000 mg/kg, dose level High): 21 pg | MCHC (1000 mg/kg, dose level High): 32.7% | MCV (1000 mg/kg, dose level High): 64.2 fL | Mono (1000 mg/kg, dose level High): 4% | Neu (1000 mg/kg, dose level High): 15.6% | Plat (1000 mg/kg, dose level High): 127.8 x10_4/uL | RBC (1000 mg/kg, dose level High): 647.8 x10_4/ul | Ret (1000 mg/kg, dose level High): 8.3% | WBC (1000 mg/kg, dose level High): 75.6 x10_2/uL | KIDNEY_L (1000 mg/kg, dose level High): 0.9 g | KIDNEY_R (1000 mg/kg, dose level High): 0.9 g | KIDNEY_TOTAL (1000 mg/kg, dose level High): 1.8 g | LIVER (1000 mg/kg, dose level High): 9.6 g | A/G (1000 mg/kg, dose level High): 1.1 | ALP (1000 mg/kg, dose level High): 1276 IU/L | ALT (1000 mg/kg, dose level High): 29.8 IU/L | AST (1000 mg/kg, dose level High): 74.4 IU/L | BUN (1000 mg/kg, dose level High): 12.8 mg/dL | CRE (1000 mg/kg, dose level High): 0.1 mg/dL | Ca (1000 mg/kg, dose level High): 10.3 mg/dL | Cl (1000 mg/kg, dose level High): 104.8 meq/L | DBIL (1000 mg/kg, dose level High): 0.008 mg/dL | GLC (1000 mg/kg, dose level High): 183.8 mg/dL | IP (1000 mg/kg, dose level High): 7.6 mg/dL | K (1000 mg/kg, dose level High): 4.1 meq/L | LDH (1000 mg/kg, dose level High): 313.2 IU/L | Na (1000 mg/kg, dose level High): 141 meq/L | PL (1000 mg/kg, dose level High): 112.4 mg/dL | RALB (1000 mg/kg, dose level High): 2.9 g/dL | TBIL (1000 mg/kg, dose level High): 0.01 mg/dL | TC (1000 mg/kg, dose level High): 57.2 mg/dL | TG (1000 mg/kg, dose level High): 47.6 mg/dL | TP (1000 mg/kg, dose level High): 5.5 g/dL | gamma-GTP (1000 mg/kg, dose level High): 0.8 IU/L
